Entries after “also recorded” stand apart in the source; their conditions may differ.
Assays:
anesthetized cats = test system: anesthetized cats; design: method as in ref 24 = [24]; 24. Panteri A Deurinck M Seewald W Gerber S King JN Desevaux C Safety of intravenous Robenacoxib (Onsior) in cats J Vet Pharmacol Ther 2015 38 S1 149; details: single dose SC 2 mg/kg or 2 or 4 mg/kg IV, 5 or 60 min post administration; cited from earlier work
cats [1] = details: in vivo
Experimental: Necropsies were performed in cage order. All animals were euthanized on Day 38 by intramuscular sedation with ketamine followed approximately 30 min later in a different room by an intravenous overdose of sodium pentobarbital solution and exsanguination, under procedures approved by a veterinary pathologist and according to the study site’s standard operating procedures. After a complete post-mortem evaluation, tissue samples were collected for histopathological analysis. Additionally, the following organs were weighed before tissues were collected: adrenal gland, aorta, brain, epididymis, heart, kidney, liver, lung with bronchi, ovary, pituitary, prostate, salivary gland (mandibular), spleen, testis, thymus, thyroid gland (with parathyroid), and uterus with cervix. In order to correct for body weight and size, the ratio of organ weight to body weight and brain weight was calculated for each animal. Tissues, including any gross lesions identified during the necropsy, were fixed in neutral buffered formalin, except the eye including optic nerve and testes were fixed using a modified Davidson’s fixative [36]. Tissue sections were stained with hematoxylin and eosin and evaluated by a board-certified veterinary pathologist. A bone marrow smear was collected from a rib at necropsy and analyzed qualitatively by a board-certified veterinary clinical pathologist.

cats [2] = details: in vivo; remark: listed apart in the source
[3] = Toxicokinetics: robenacoxib concentration in blood by LC-MS/MS; format: in vivo, cat
Experimental: Approximately 0.5 mL of whole blood was collected from animals via the jugular vein and placed in tubes containing K2EDTA. Samples were collected within 30 minutes prior to dosing and at 0.75, and 4 hours postdose on Days 1, 4, 7, 10, 17, 30, and 37. A single 0.5 mL sample was collected from all animals 4 hours postdose on Days 8, 11, 14, 28, 31, and 34. The animals were fasted for predose and 0.75 hour blood collections and were fed 2 to 3 hours after dose administration. Samples were stored frozen (-10 to […]) within approximately 1 hour after collection until analyzed. Day 1 blood samples were inadvertently processed to plasma and therefore not analyzed.
Robenacoxib was quantitatively analyzed in blood using a validated analytical method involving liquid chromatography with tandem mass spectrometry detection (LC-MS/MS) that has been previously describe. Performance of the method was monitored by low, medium and high quality control samples, where inter-run %RSD (relative standard deviation) was 8.3, 7.4, and 5.8, respectively.
Only abbreviated toxicokinetic sampling was performed so as not to interfere with the primary objective of the study. Concentrations below the limit of quantification were considered 0.

## CCc1ccc(Nc2c(F)c(F)cc(F)c2F)c(CC(=O)O)c1 [robenacoxib]
Anesthetized cats
  electrocardiographic changes (including QT interval): no electrocardiographic changes
Cats [1]
  Robenacoxib-related microscopic findings: increased injection site subacute/chronic inflammation
  absolute liver weight increase compared to control: 14%
  severity of injection site inflammation observations: minimal
Cats [2]
  QT duration vs control (RR interval as covariate): No prolongation
  QT interval, average post-treatment: approximately 160 ms
  QT interval, average pretest values: approximately 140 ms
  mean baseline heart rate: approximately 305 bpm
  mean heart rate post treatment: 260-277 bpm
  qualitative assessment of electrocardiograms: qualitatively normal
[3]; 1X, SC 2.0 mg/kg/day, Study Day 8, 4 h postdose
  plasma robenacoxib concentration (mean ± SD): 98.2 ± 60.7 ng/mL
[3]; 1X, SC 2.0 mg/kg/day, Study Day 10, 0.75 h postdose
  plasma robenacoxib concentration (mean ± SD): 1124.1 ± 325.9 ng/mL
[3]; 1X, SC 2.0 mg/kg/day, Study Day 10, 4 h postdose
  plasma robenacoxib concentration (mean ± SD): 79.1 ± 51.5 ng/mL
[3]; 1X, SC 2.0 mg/kg/day, Study Day 28, 4 h postdose
  plasma robenacoxib concentration (mean ± SD): 117.2 ± 86.1 ng/mL
[3]; 1X, SC 2.0 mg/kg/day, Study Day 30, 0.75 h postdose
  plasma robenacoxib concentration (mean ± SD): 1358.6 ± 254.5 ng/mL
[3]; 1X, SC 2.0 mg/kg/day, Study Day 30, 4 h postdose
  plasma robenacoxib concentration (mean ± SD): 94.8 ± 68.3 ng/mL
[3]; 1X, oral ≥2.4 mg/kg/day, Study Day 4, 0.75 h postdose
  plasma robenacoxib concentration (mean ± SD): 2593.1 ± 909.5 ng/mL
[3]; 1X, oral ≥2.4 mg/kg/day, Study Day 4, 4 h postdose
  plasma robenacoxib concentration (mean ± SD): 22.9 ± 11.6 ng/mL
[3]; 1X, oral ≥2.4 mg/kg/day, Study Day 7, 0.75 h postdose
  plasma robenacoxib concentration (mean ± SD): 2591.3 ± 875.5 ng/mL
[3]; 1X, oral ≥2.4 mg/kg/day, Study Day 7, 4 h postdose
  plasma robenacoxib concentration (mean ± SD): 26.9 ± 27.4 ng/mL
[3]; 1X, oral ≥2.4 mg/kg/day, Study Day 11, 4 h postdose
  plasma robenacoxib concentration (mean ± SD): 34.9 ± 36.2 ng/mL
[3]; 1X, oral ≥2.4 mg/kg/day, Study Day 14, 4 h postdose
  plasma robenacoxib concentration (mean ± SD): 19.0 ± 7.3 ng/mL
[3]; 1X, oral ≥2.4 mg/kg/day, Study Day 17, 0.75 h postdose
  plasma robenacoxib concentration (mean ± SD): 2811.3 ± 1502.1 ng/mL
[3]; 1X, oral ≥2.4 mg/kg/day, Study Day 17, 4 h postdose
  plasma robenacoxib concentration (mean ± SD): 42.7 ± 49.7 ng/mL
[3]; 1X, oral ≥2.4 mg/kg/day, Study Day 31, 4 h postdose
  plasma robenacoxib concentration (mean ± SD): 27.2 ± 16.0 ng/mL
[3]; 1X, oral ≥2.4 mg/kg/day, Study Day 34, 4 h postdose
  plasma robenacoxib concentration (mean ± SD): 35.3 ± 28.5 ng/mL
[3]; 1X, oral ≥2.4 mg/kg/day, Study Day 37, 0.75 h postdose
  plasma robenacoxib concentration (mean ± SD): 2717.6 ± 1589.6 ng/mL
[3]; 1X, oral ≥2.4 mg/kg/day, Study Day 37, 4 h postdose
  plasma robenacoxib concentration (mean ± SD): 90.4 ± 106.6 ng/mL
[3]; 2X, SC 4.0 mg/kg/day, Study Day 8, 4 h postdose
  plasma robenacoxib concentration (mean ± SD): 233.6 ± 215.8 ng/mL
[3]; 2X, SC 4.0 mg/kg/day, Study Day 10, 0.75 h postdose
  plasma robenacoxib concentration (mean ± SD): 1481.3 ± 359.7 ng/mL
[3]; 2X, SC 4.0 mg/kg/day, Study Day 10, 4 h postdose
  plasma robenacoxib concentration (mean ± SD): 263.1 ± 249.4 ng/mL
[3]; 2X, SC 4.0 mg/kg/day, Study Day 28, 4 h postdose
  plasma robenacoxib concentration (mean ± SD): 236.6 ± 130.2 ng/mL
[3]; 2X, SC 4.0 mg/kg/day, Study Day 30, 0.75 h postdose
  plasma robenacoxib concentration (mean ± SD): 1821.6 ± 817.9 ng/mL
[3]; 2X, SC 4.0 mg/kg/day, Study Day 30, 4 h postdose
  plasma robenacoxib concentration (mean ± SD): 326.0 ± 276.7 ng/mL
[3]; 2X, oral ≥4.8 mg/kg/day, Study Day 4, 0.75 h postdose
  plasma robenacoxib concentration (mean ± SD): 5177.5 ± 2229.5 ng/mL
[3]; 2X, oral ≥4.8 mg/kg/day, Study Day 4, 4 h postdose
  plasma robenacoxib concentration (mean ± SD): 54.2 ± 28.5 ng/mL
[3]; 2X, oral ≥4.8 mg/kg/day, Study Day 7, 0.75 h postdose
  plasma robenacoxib concentration (mean ± SD): 3383.8 ± 1818.8 ng/mL
[3]; 2X, oral ≥4.8 mg/kg/day, Study Day 7, 4 h postdose
  plasma robenacoxib concentration (mean ± SD): 67.8 ± 58.5 ng/mL
[3]; 2X, oral ≥4.8 mg/kg/day, Study Day 11, 4 h postdose
  plasma robenacoxib concentration (mean ± SD): 66.6 ± 57.4 ng/mL
[3]; 2X, oral ≥4.8 mg/kg/day, Study Day 14, 4 h postdose
  plasma robenacoxib concentration (mean ± SD): 53.8 ± 59.0 ng/mL
[3]; 2X, oral ≥4.8 mg/kg/day, Study Day 17, 0.75 h postdose
  plasma robenacoxib concentration (mean ± SD): 4160.0 ± 1166.0 ng/mL
[3]; 2X, oral ≥4.8 mg/kg/day, Study Day 17, 4 h postdose
  plasma robenacoxib concentration (mean ± SD): 64.5 ± 54.7 ng/mL
[3]; 2X, oral ≥4.8 mg/kg/day, Study Day 31, 4 h postdose
  plasma robenacoxib concentration (mean ± SD): 101.5 ± 152.6 ng/mL
[3]; 2X, oral ≥4.8 mg/kg/day, Study Day 34, 4 h postdose
  plasma robenacoxib concentration (mean ± SD): 92.2 ± 58.5 ng/mL
[3]; 2X, oral ≥4.8 mg/kg/day, Study Day 37, 0.75 h postdose
  plasma robenacoxib concentration (mean ± SD): 4009.4 ± 1765.2 ng/mL
[3]; 2X, oral ≥4.8 mg/kg/day, Study Day 37, 4 h postdose
  plasma robenacoxib concentration (mean ± SD): 80.0 ± 62.6 ng/mL
[3]; 3X, SC 6.0 mg/kg/day, Study Day 8, 4 h postdose
  plasma robenacoxib concentration (mean ± SD): 723.3 ± 250.8 ng/mL
[3]; 3X, SC 6.0 mg/kg/day, Study Day 10, 0.75 h postdose
  plasma robenacoxib concentration (mean ± SD): 2461.3 ± 1075.8 ng/mL
[3]; 3X, SC 6.0 mg/kg/day, Study Day 10, 4 h postdose
  plasma robenacoxib concentration (mean ± SD): 390.2 ± 236.2 ng/mL
[3]; 3X, SC 6.0 mg/kg/day, Study Day 28, 4 h postdose
  plasma robenacoxib concentration (mean ± SD): 394.8 ± 187.7 ng/mL
[3]; 3X, SC 6.0 mg/kg/day, Study Day 30, 0.75 h postdose
  plasma robenacoxib concentration (mean ± SD): 2878.8 ± 831.4 ng/mL
[3]; 3X, SC 6.0 mg/kg/day, Study Day 30, 4 h postdose
  plasma robenacoxib concentration (mean ± SD): 418.7 ± 246.2 ng/mL
[3]; 3X, oral ≥7.2 mg/kg/day, Study Day 4, 0.75 h postdose
  plasma robenacoxib concentration (mean ± SD): 5511.8 ± 3389.8 ng/mL
[3]; 3X, oral ≥7.2 mg/kg/day, Study Day 4, 4 h postdose
  plasma robenacoxib concentration (mean ± SD): 98.0 ± 48.6 ng/mL
[3]; 3X, oral ≥7.2 mg/kg/day, Study Day 7, 0.75 h postdose
  plasma robenacoxib concentration (mean ± SD): 7267.5 ± 4006.6 ng/mL
[3]; 3X, oral ≥7.2 mg/kg/day, Study Day 7, 4 h postdose
  plasma robenacoxib concentration (mean ± SD): 76.2 ± 32.2 ng/mL
[3]; 3X, oral ≥7.2 mg/kg/day, Study Day 11, 4 h postdose
  plasma robenacoxib concentration (mean ± SD): 99.2 ± 36.3 ng/mL
[3]; 3X, oral ≥7.2 mg/kg/day, Study Day 14, 4 h postdose
  plasma robenacoxib concentration (mean ± SD): 79.1 ± 38.0 ng/mL
[3]; 3X, oral ≥7.2 mg/kg/day, Study Day 17, 0.75 h postdose
  plasma robenacoxib concentration (mean ± SD): 5798.8 ± 3218.0 ng/mL
[3]; 3X, oral ≥7.2 mg/kg/day, Study Day 17, 4 h postdose
  plasma robenacoxib concentration (mean ± SD): 108.5 ± 67.8 ng/mL
[3]; 3X, oral ≥7.2 mg/kg/day, Study Day 31, 4 h postdose
  plasma robenacoxib concentration (mean ± SD): 94.7 ± 69.7 ng/mL
[3]; 3X, oral ≥7.2 mg/kg/day, Study Day 34, 4 h postdose
  plasma robenacoxib concentration (mean ± SD): 84.2 ± 30.3 ng/mL
[3]; 3X, oral ≥7.2 mg/kg/day, Study Day 37, 0.75 h postdose
  plasma robenacoxib concentration (mean ± SD): 6460.0 ± 3839.3 ng/mL
[3]; 3X, oral ≥7.2 mg/kg/day, Study Day 37, 4 h postdose
  plasma robenacoxib concentration (mean ± SD): 123.2 ± 121.7 ng/mL
[3]; all dose groups
  oral administration vs subcutaneous injection, average concentrations: higher average 0.75 h concentrations and lower average 4 h concentrations
[3]; comparing concentrations 4 h post oral administration (Days 4, 7, 11, 14, 17, 31, 34, 37)
  accumulation of robenacoxib: no accumulation observed after Day 4; also recorded: No robenacoxib accumulation was observed

From PMC7520961, “Safety evaluation of the interchangeable use of robenacoxib in commercially-available tablets and solution for injection in cats” (BMC Veterinary Research, 2020)
